Assay results published in patent publication EP0363829A2, “Predicting sensitivity to injectable radio contrast media with histamine release test” (MILES INC., priority 1988, dated 1990).

Assays:
[1] = test system: basophils; format: cell-based, patients
Experimental: In the first step a histamine-protein conjugate is adsorbed to 94 polystyrene pegs simultaneously. This is accomplished by submerging the pegs into wells of a 96 well microtiter plate (referred to as the adsorption plate) that contain a solution of a histamine-BSA conjugate. Two microtiter wells contain only BSA and are used as negative controls. Following a one hour incubation period at room temperature, the pegs are removed and washed to remove non-adsorbed conjugate.
A second 96 well microtiter plate (referred to as the release plate) containing various dilutions of RCM or histamine is also prepared. […]
The relative concentration of the monoclonal antibody-horseradish peroxidase conjugate bound to the histamine-BSA conjugate on the polystyrene pegs is now estimated by immersing the pegs in a third microtiter plate (referred to as the chromogen plate) containing a chromogenic substrate for horseradish peroxidase, 2, 2′-azino-di-(3-ethyl-benzothiazoline)-6-sulfonic acid (ABTS®). […] Quantitative assessment of histamine release can be made if a Microtiter ELISA Reader is available. […]
The radio contrast media (RCM) to be tested as the allergen was diluted into 8 to 9 serial dilutions using Tris ACM or distilled water as diluent. […] The release plate was then ready for use. […]

[2] = set-up: species or system patients; settings: human, in vivo
Experimental: A clinical study was performed to test the hypothesis that sensitivity (allergy) to radio contrast media could be predicted by the results of the histamine release test described herein. Histamine release from a blood sample from patients who would later be tested with a radio contrast media was measured. The results were later compared with the occurrence of an allergic reaction to the administration of the radio contrast media.

Structure (SMILES): CC(=O)Nc1c(I)c(NC(C)=O)c(I)c(C(=O)O)c1I [Hypaque]
- degree of histamine release [1]: highest degree of histamine release
- histamine release [1]: significantly more histamine release
- patients with an allergic reaction to the injection of the radio contrast media [2]: one
